Laboratory results: patent publication US6503912B1, “Substituted guanidine derivatives” (Bayer Aktiengesellschaft, priority 1998, dated 2003)

Assay: logP determination by HPLC (EEC directive 79/831 Annex V. A8)
Settings: HPLC gradient method, acetonitrile/0.1% aqueous phosphoric acid
Method: [logP=The logP values were determined in accordance with EEC directive 79/831 Annex V. A8 by HPLC (gradient method, acetonitrile/0.1% aqueous phosphoric acid]

O=C(OCN1CCN(Cc2ccc(Cl)nc2)C1=N[N+](=O)[O-])C1CC1 [Example 59]
logP (pH = 2.3): 1.57
